These are literature values, as cited in patent US20040142045A1, “THERAPEUTIC TREATMENT FOR BLOOD SUGAR REGULATION” (priority 2003, published 2004).

Where two headings read alike, the source gives them in different places.

The conditions of data set [1]: animal models of insulin resistance and Type 2 diabetic patients.
For data set [2] the following is noted: diabetic animals.
The test system of a further data set is glucokinase. Particulars: supplementation.
For data set [3] the following is noted: insulin dependent diabetes mellitus.
For data set [4] the following is noted: experimental animals.
For data set [5] the following is noted: Type 1 and Type 2 diabetics, supplementation.
The conditions of data set [6]: diabetics, dietary supplementation.
The conditions of data set [7]: another study, supplementation.
The conditions of data set [8]: mice with abnormally high glucose concentrations.

Regarding `O=C(O)CCCCC1CCSS1` (stereo not drawn) [Alpha lipoic acid], the “insulin regulated glucose disposal” value in data set [1] is listed as “improve”. In data set [2], the blood glucose levels entry was “lower” and the “glucose uptake into the peripheral tissues” value was “enhanced”. On to `O=C(O)CCCC[C@@H]1SC[C@@H]2NC(=O)N[C@@H]21` [Biotin], for which the activity of glucokinase entry with glucokinase is “increase”. The “fasting blood glucose levels” value in data set [3] is reported as “significant reduction”. Regarding `NC(=O)c1cccnc1` [Nicotinamide], the development of diabetes result in data set [4] is “prevent”. As for `[Zn]` [Zinc], in data set [5], the insulin levels result is listed as “improve”.

On to `[Cr]` [chromium], for which, in data set [6], the “fasting blood glucose levels” value is on record as “decrease”. For `O=S(=O)([O-])[O-].[O]=[V+2]` [vanadyl sulfate], the “fasting blood glucose and hepatic insulin resistance” value in data set [7] is listed as “modest reductions”. With methylhydroxy chalcone polymer, in data set [8], the glucose concentrations entry is “fell dramatically”.
